Earlier results in patent US20160076057A1, “INHIBITION OF METHANE AND HYDROGEN SULFIDE PRODUCTION IN ANAEROBIC DIGESTER ANIMAL FARMS, LANDFILLS, SEDIMENTS AND SEWER SYSTEMS” (Innovative Environmental Technologies, Inc., priority 2014, published 2016).

Assays:
[1] = system: F420-dependent NADP oxidoreductase enzyme; details: Sharma et al. (2011); for affinity for the model protein compared to natural ligand F420: 3D model structure, F420 binding cavity
[2] = system: Methanobrevibacter; details: Miller and Wolin (2001)
[3] = system: pure methanogenic bacteria; details: Wolin and Miller (2005)
[4] = system: cellulolytic bacteria; details: Wolin and Miller (2005)
[5] = system: non-methanogens; details: Miller and Wolin (2001)

| Structure (SMILES) | affinity for the model protein compared to natural ligand F420 [1] | blocking the activity site for methane production [1] | methane formation [2] | concentration that completely inhibited growth ([2]; per ml of culture medium) [nmol/mL] | IC50 ([2]; per ml of culture medium, read-out: concentration giving 50% inhibition of growth) [µM] | growth and activity of pure methanogenic bacteria [3] | effect on cellulolytic bacteria [4] | populations of the non-methanogens [5] |
| --- | --- | --- | --- | --- | --- | --- | --- | --- |
| CC[C@H](C)C(=O)O[C@H]1CCC=C2C=C[C@H](C)[C@H](CC[C@@H]3C[C@@H](O)CC(=O)O3)[C@H]21 [compactin, compactin (mevastatin)] | more affinity | very effective |  |  |  |  |  |  |
| CC[C@H](C)C(=O)O[C@H]1C[C@@H](C)C=C2C=C[C@H](C)[C@H](CC[C@@H]3C[C@@H](O)CC(=O)O3)[C@H]21 [lovastatin, Lovastatin] | more affinity | very effective | significantly inhibited | 10 | 4 | significantly reduced | without any negative effect | not affected |
